Results published in article PMC8097444 (Antimicrobial Agents and Chemotherapy, 2021).
Like-named read-outs stand apart in the source and are kept apart here.

Legend:
[1] = target: SARS-CoV-2 3CL^pro (Severe acute respiratory syndrome coronavirus 2, UniProt P0DTD1); assay: SARS-CoV-2 3CLpro fluorogenic; format: biochemical; conditions: for inhibition of 3CL^pro in screen: 10 μM drug, hit of 1,068 or 2,701 FDA-approved drug collection
[2] = system: COVID-19 patients; conditions: cited from earlier work
[3] = system: SARS-CoV-2; conditions: cited from earlier work
[4] = system: SARS-CoV-2 in human lung cells; conditions: in vitro assay; cited from earlier work
[5] = target: SARS-CoV-2 PL^pro (Severe acute respiratory syndrome coronavirus 2, UniProt P0DTD1); assay: SARS-CoV-2 PLpro fluorogenic inhibition assay: screening at 10 μM and IC50; format: biochemical
[6] = system: SARS-CoV-2 virus; format: cell-based; conditions: for selectivity index (SI): derived from CC50 and EC50
[7] = system: SARS-CoV; conditions: read-out: EC50 against SARS-CoV; cited from earlier work
[8] = read-out: EC50 against SARS-CoV-2 in vitro

CC(C)(C)NC(=O)N[C@H](C(=O)N1C[C@H]2[C@@H]([C@H]1C(=O)NC(CC1CCC1)C(=O)C(N)=O)C2(C)C)C(C)(C)C (stereo partly drawn) [Boceprevir]
inhibition of 3CL^pro in screen [1]: active at 10 μM

O=c1c2ccccc2[se]n1-c1ccccc1 [Ebselen]
inhibition of 3CL^pro in screen [1]: active at 10 μM

CCC(CC)COC(=O)[C@H](C)N[P@](=O)(OC[C@H]1O[C@@](C#N)(c2ccc3c(N)ncnn23)[C@H](O)[C@@H]1O)Oc1ccccc1 [Remdesivir]
benefit in clinical trials on COVID-19 patients [2]: 68% | EC50 ([3]; read-out: EC50, SARS-CoV-2 viral replication): 0.7 µM

CCN(CC)CCCC(C)Nc1ccnc2cc(Cl)ccc12 (stereo not drawn) [chloroquine]
inhibitory effects on SARS-CoV-2 in human lung cells [4]: no inhibitory effects | EC50 [3, 8]: 1.13 µM

NC(=O)c1nc(F)c[nH]c1=O [favipiravir]
inhibition of SARS-CoV-2 replication [3]: weak inhibition

CCN(CCO)CCCC(C)Nc1ccnc2cc(Cl)ccc12 (stereo not drawn) [hydroxychloroquine]
clinical benefit against COVID-19 [2]: no clinical benefit | inhibition of SARS-CoV-2 in vitro [3]: shown to inhibit SARS-CoV-2 in vitro

N[C@@H](Cc1cc(I)c(Oc2cc(I)c(O)c(I)c2)c(I)c1)C(=O)O [levothyroxine]
IC50 [5]: 15.3 ± 4.2 µM | inhibition of virus, postentry treatment [6]: postentry treatment could not inhibit the virus | reduction of viral plaques, full-time treatment [6]: effective in reducing viral plaques | selectivity index (SI) [6]: > 14.3 | IC50 [1]: 19.2 ± 1.2 µM

CN(C)C(=O)C(CCN1CCC(O)(c2ccc(Cl)cc2)CC1)(c1ccccc1)c1ccccc1 [loperamide]
inhibition of virus, postentry treatment [6]: postentry treatment could still inhibit the virus | reduction of viral plaques, full-time treatment [6]: effective in reducing viral plaques | antiviral activity, entry step ([6]; entry treatment): not the entry step

COC(=O)C1=C(C)NC(C)=C(C(=O)OCCN2CCN(C(c3ccccc3)c3ccccc3)CC2)C1c1cccc([N+](=O)[O-])c1 (stereo not drawn) [manidipine-2HCl]
IC50 [5]: 14.2 ± 1.7 µM | inhibition of virus, postentry treatment [6]: postentry treatment could still inhibit the virus | reduction of viral plaques, full-time treatment [6]: effective in reducing viral plaques | selectivity index (SI) [6]: > 6.9 | IC50 [1]: 10.4 ± 1.6 µM

CNCCCC12CCC(c3ccccc31)c1ccccc12 [maprotiline]
antiviral activity, entry step [6]: not the entry step | inhibition of virus, postentry treatment [6]: postentry treatment could still inhibit the virus | reduction of viral plaques, full-time treatment [6]: effective in reducing viral plaques

Nc1nc2c(ncn2CCC(CO)CO)c(=O)[nH]1 [penciclovir]
inhibition of SARS-CoV-2 replication [3]: weak inhibition

COC(=O)[C@H]1[C@H]2C[C@@H]3c4[nH]c5cc(OC)ccc5c4CCN3C[C@H]2C[C@@H](OC(=O)c2cc(OC)c(OC)c(OC)c2)[C@@H]1OC [reserpine]
IC50 [5]: 5.7 ± 0.7 µM | reduction of viral plaques, full-time treatment [6]: effective in reducing viral plaques | selectivity index (SI) [6]: > 15.2 | EC50 [7]: 3.4 µM

NC(=O)c1ncn([C@@H]2O[C@H](CO)[C@@H](O)[C@H]2O)n1 [ribavirin]
inhibition of SARS-CoV-2 replication [3]: weak inhibition

Cc1ccc(C(=O)c2cc(O)c(O)c([N+](=O)[O-])c2)cc1 [tolcapone]
antiviral activity (figure not shown) ([6]; tolcapone): weak antiviral activity only at 50 μM | IC50 [1]: 7.9 µM | inhibition of 3CL^pro in screen [1]: active at 10 μM

ivermectin
EC50 [3, 8]: 2.5 µM

lopinavir/ritonavir
inhibition of SARS-CoV-2 replication [3]: weak inhibition
